Literature values in patent publication US20240424000A1, “LONG-ACTING INTRA-ARTICULAR DOSAGE FORMS CONTAINING FLUTICASONE PROPIONATE AND USE THEREOF” (Eupraxia Pharmaceuticals Inc., priority 2023, published 2024).

Tested on: cartilage
Conditions: IA every 12 weeks for 2 years; McAlindon et al. 2017

## CC1(C)O[C@@H]2C[C@H]3[C@@H]4CCC5=CC(=O)C=C[C@]5(C)[C@@]4(F)[C@@H](O)C[C@]3(C)[C@]2(C(=O)CO)O1 [TCA, triamcinolone acetonide]
  effect of chronic exposure on cartilage: led to increased cartilage loss
